Assay results as given in patent EP1398031A1, “Use of 6-amino-quinoline-5,8-quinones and nucleic acids associated with senescence for the treatment of tumors” (Max-Planck-Gesellschaft zur Förderung der Wissenschaften …, priority 2002, dated 2004).

What was measured:
HDF [1] = test: cGMP assay (competitive immunoassay on cell lysates); format: cell-based; settings: Homo sapiens, 1 µM LY, 100 µM SNP for 2 hours, read-out: inhibition of the SNP-induced synthesis of cGMP
Experimental: Cells of early and late passages were seeded in equal numbers in 6-well plates. 24 hours later SNP (Sigma) was dissolved in complete medium and added to cells to a final concentration of 100 µM. Control cells received the same volume of drug-free medium. After 2 hours of incubation, medium was removed and cells were lysed by addition of 400 µl 0.1 M HCl per well for 10 minutes. cGMP concentration in lysates was determined using a specific competitive immunoassay according to the manufacturer's instructions (Sigma). A plate reader (LAMBDA E, MWG-Biotech) was used to detect the signal at 405 nm. Experiments were performed in triplicates with all samples measured twice.

HDF [2] = test: proliferation assay (cell counting); format: cell-based
Experimental: (§1) Cells were seeded in equal numbers in 6-well plates the day before addition of LY in order to ensure uniform cell layers at the start of the experiments. Cells were treated in triplicates with daily exchange of medium containing drug or drug-free vehicle. For each time point cells were trypsinized and cell proliferation was assessed using a Z1 Counter (Coulter).

HDF [3] = test: SA-β-gal staining and morphology; format: cell-based, human; settings: early passage HDF treated with LY
Experimental: Cells were fixed by incubation in 0.5 % glutaraldehyde in PBS for 5 minutes at room temperature and stained for SA-ß-galactosidase at pH 6.0 as described by Dimri et al., 1995.
(§2) For phase contrast and β-gal staining an Axiovert 25 microscope (Zeiss) equipped with a HyperHAD CCD camera (Sony) and ImageBase software (Kappa) was used. In vivo expression of histone-H2B-eGFP was documented with a Photometrics CooISNAP-HQ CCD camera (Roper Scientific) on an inverted Axiovert 200M microscope (Zeiss) using the Metamorph software (Universal Imaging).

HDF [4] = test: FACS analysis of cell cycle after release from confluence; format: cell-based, human; settings: HDF synchronized by confluence, released by trypsinization; 1 µM LY, 24 and 36 hours
Experimental: (§3) Cell samples (both adherent and floating cells) were harvested by trypsinization, washed once with PBS and fixed in 70 % ethanol for > 2 hours on ice, washed once with PBS and incubated for 30 minutes at room temperature in staining solution containing 50 µg/ml of propidium iodide, 0.2 mg/ml of RNase A and 0.1 % (v/v) Triton X-100 in PBS. Quantification of apoptotic cells was performed using the Annexin V-FITC apoptosis detection kit (Becton Dickinson). Samples were analyzed with a FACScan unit (Becton Dickinson). 1×10^4 cells were analyzed for each assay. Quantitation was performed using single histogram statistics.

HDF [5] = test: detection of DNA-synthesis (BrdU incorporation); format: cell-based, human; settings: 1 µM LY; synchronized HDF; 10 µM BrdU for 6 hours
Experimental: Cells were plated on cell locate glass grids (Eppendorf) and labeled for 6 hours using the 5'-bromo-2'-deoxy-uridine labelling and detection kit I (Roche Applied Sciences). After staining with a FITC-labeled anti-BrdU-antibody, positive cells were detected by fluorescence microscopy.

p53 protein in HDF = test: Western blot analysis, p53; format: cell-based, human; settings: after treatment with LY
Experimental: (§4) Cells were lysed in a lysis buffer composed of 50 mM HEPES pH 7.5, 150 mM NaCl, 1 mM EGTA, 10 % glycerol, 1 % Triton X-100, 100 mM NaF, 10 mM Na4P2O7, 1 µM PMSF, and 1 µM Na3VO4. Protein concentration in whole lysates was determined using a Bradford assay (BioRad). 20 µg of lysates diluted with Laemmli-buffer were separated on 12 % SDS-polyacrylamide gels and transferred to Immobilon-P membranes (Millipore). For detection of pRb, separation was performed on a 7-12 % gradient gel. Antibodies against p53 (Pab 1801), p21 (c-19), p16 (c-20) and α-Tubulin (TU-02) were purchased from Santa Cruz Biotechnology. Anti-pRB antibodies (G3-245) were from BD PharMingen. Enhanced chemiluminescence generated by horse radish peroxidase-coupled secondary antibodies was detected with a CF440 imager (Kodak/Perkin Elmer).

p16INK4A in HDF = test: Western blot analysis, p16; format: cell-based, human; settings: 48 hours of treatment with LY
Experimental: as §4

pRb in HDF = test: Western blot analysis, pRb phosphorylation status; format: cell-based, human
Experimental: as §4

DLD1 = test: proliferation assay (cell counting); format: cell-based, human; settings: after addition of LY
Experimental: as §1

HCT116 = test: proliferation assay (cell counting); format: cell-based, human
Experimental: as §1

MCF7 = test: proliferation assay (cell counting); format: cell-based, human; settings: after addition of LY
Experimental: as §1

[6] = system: p21-deficient HCT116 colorectal cancer cells; test: proliferation assay (cell counting); format: cell-based, human
Experimental: as §1

[7] = system: p53-deficient HCT116 cells; test: proliferation assay (cell counting); format: cell-based, human; settings: after LY addition
Experimental: as §1

[8] = system: p21 protein in HCT116 cells; test: Western blot analysis, p21; format: cell-based, human
Experimental: as §4

[9] = system: p21 mRNA and protein of p53-/- HCT116; test: Northern and Western blot analysis of p21; format: cell-based, human; settings: 1.5 µM LY
Experimental: (§5) RNA was isolated using the RNAgents kit (Promega). A Northern probe directed against the 3'-untranslated region of ELF1 α mRNA was generated by PCR using an EST as template and subsequent gel purification. The p21 probe corresponds to the open reading frame of p21. A probe corresponding to the 5'-region of sGC-β3 was amplified from HDF-cDNA and subcloned. Hybridizations were performed in QuickHyb, following the manufacturer's instructions (Stratagene).
as §4

[10] = system: p16INK4A-deficient mouse embryo fibroblasts (MEF); test: proliferation (data not shown); format: cell-based; settings: LY
Experimental: as §1

[11] = system: NIH3T3-L1 cells expressing the K1-mutant; test: proliferation assay (cell counting); format: cell-based, mouse; settings: 1.5 µM LY; most cells
Experimental: as §1

[12] = system: NIH3T3-L1 cells expressing wildtype SV40 large T antigen; test: proliferation assay, morphology and annexin V staining; format: cell-based, mouse; settings: 1.5 µM LY
Experimental: as §3, §1

HeLa = test: cell death / apoptosis (histone H2B-eGFP chromatin morphology, sub-G1 flow cytometry); format: cell-based, human
Experimental: as §3, §2

HEK293 = test: cell death (data not shown); format: cell-based, human; settings: treatment with LY, no arrest
[13] = system: cdk-inhibitors p27 and p15; test: induction of cdk-inhibitors (data not shown); format: cell-based; settings: LY-treatment
[14] = biological target: soluble guanylate cyclase; settings: competitive inhibitor of soluble guanylate cyclase; Fleisch et al., 1984; cited from earlier work
p21 mRNA in HDF = test: Northern blot analysis of p21 mRNA; format: cell-based, human; settings: 0.2 µg/ml adriamycin
Experimental: as §5

SMILES: O=C1C(Nc2ccccc2)=CC(=O)c2ncccc21 [LY, 6-Anilino-quinoline-5,8-quinone]
- inhibition at 1 µM (HDF [1]): 60%
- inhibition at 0.25 µM (HDF [2]; Homo sapiens, HDF, 72 h, read-out: reduction in proliferation): 50%
- inhibition of proliferation (HDF [2]; early passage fibroblasts, 1 µM LY): completely inhibit proliferation
- proliferation after extended treatment (HDF [2]; treatment for 8 days): stable inhibition of proliferation
- toxicity after extended treatment (HDF [2]; treatment for 8 days): did not cause any obvious toxicity
- reversibility of inhibition of proliferation (HDF [2]; treatment period of more than 2 days, 1 µM LY): irreversible
- signs of senescence (morphology, SA-β-galactosidase) (HDF [3]): morphological changes characteristic of senescence and by SA-β-galactosidase staining at pH 6
- entry into S-phase (HDF [4]): almost completely blocked the entry into S-phase
- DNA synthesis as determined by BrdU incorporation (HDF [5]): complete inhibition of DNA synthesis
- level of p53 protein (p53 protein in HDF): did not increase
- induction of p16INK4A (p16INK4A in HDF): not induced
- ratio of phosphorylated to hypo-phosphorylated pRb (pRb in HDF; 6 hours after addition of LY): clearly shifted towards the hypo-phosphorylated form
- pRb phosphorylation status (pRb in HDF; 19 hours after addition of LY): almost completely hypo-phosphorylated
- cell proliferation (DLD1): complete cessation of cell proliferation
- cell proliferation (HCT116; after addition of LY): complete cessation of cell proliferation
- cell proliferation (HCT116; wild-type HCT116, after 5 days of LY treatment): complete cessation of proliferation
- cell proliferation (MCF7): complete cessation of cell proliferation
- cell-cycle inhibition ([6]; LY vs vehicle (DMSO)): resistant to cell-cycle inhibition
- cell proliferation ([6]; after 5 days of LY treatment): regained exponential proliferation
- cell proliferation [7]: complete block of proliferation
- p21 protein ([8]; 1.5 µM LY): induction of p21
- levels of p21 mRNA and protein [9]: induced with kinetics similar to those observed in HDF
- cell proliferation [10]: inhibited
- cell proliferation [11]: inhibition of proliferation
- cell fate [12]: underwent apoptosis
- chromatin morphology (HeLa; HeLa expressing histone H2B-eGFP, 2 µM LY for 48 hours): chromatin condensation
- cells with a sub-G1 DNA content (HeLa; HeLa treated for 60 hours with LY, flow-cytometry): substantial increase of cells with a sub-G1 DNA content
- cell fate (HeLa; treatment with LY, no arrest, data not shown): underwent cell death
- cell fate (HEK293): underwent cell death
- induction of p27 and p15 [13]: did not lead to induction
- IC50 [14]: 2 µM

SMILES: COc1cccc2c1C(=O)c1c(O)c3c(c(O)c1C2=O)C[C@@](O)(C(=O)CO)C[C@@H]3O[C@H]1C[C@H](N)[C@H](O)[C@H](C)O1 [adriamycin]
- p21 mRNA (p21 mRNA in HDF): induction of p21 mRNA
- p21 protein ([8]; wildtype HCT116 only, adriamycin at 0.2 µg/ml for 8 hours): induction of p21 protein
